Patent US9586951B2 (FUJIFILM Corporation, priority 2013, dated 2017)

What follows are compounds tested against T1, ATM (Homo sapiens, UniProt Q13315) (assay: ATM inhibition test (phosphorylation of Chk2 generated by ionizing radiation, AlphaScreen SureFire)). Conditions: phosphorylated Chk2 in NCI-H460 cells, ionizing radiation 8Gy, 1 hour after test compound treatment; read-out: ATM inhibitory activity.
T1 construct: detecting phosphorylation of Chk2 in a human non-small cell lung cancer cell line NCI-H460 (ATCC company); host or cells: NCI-H460 human non-small cell lung cancer cells
T1 sequence (Q13315 whole entry): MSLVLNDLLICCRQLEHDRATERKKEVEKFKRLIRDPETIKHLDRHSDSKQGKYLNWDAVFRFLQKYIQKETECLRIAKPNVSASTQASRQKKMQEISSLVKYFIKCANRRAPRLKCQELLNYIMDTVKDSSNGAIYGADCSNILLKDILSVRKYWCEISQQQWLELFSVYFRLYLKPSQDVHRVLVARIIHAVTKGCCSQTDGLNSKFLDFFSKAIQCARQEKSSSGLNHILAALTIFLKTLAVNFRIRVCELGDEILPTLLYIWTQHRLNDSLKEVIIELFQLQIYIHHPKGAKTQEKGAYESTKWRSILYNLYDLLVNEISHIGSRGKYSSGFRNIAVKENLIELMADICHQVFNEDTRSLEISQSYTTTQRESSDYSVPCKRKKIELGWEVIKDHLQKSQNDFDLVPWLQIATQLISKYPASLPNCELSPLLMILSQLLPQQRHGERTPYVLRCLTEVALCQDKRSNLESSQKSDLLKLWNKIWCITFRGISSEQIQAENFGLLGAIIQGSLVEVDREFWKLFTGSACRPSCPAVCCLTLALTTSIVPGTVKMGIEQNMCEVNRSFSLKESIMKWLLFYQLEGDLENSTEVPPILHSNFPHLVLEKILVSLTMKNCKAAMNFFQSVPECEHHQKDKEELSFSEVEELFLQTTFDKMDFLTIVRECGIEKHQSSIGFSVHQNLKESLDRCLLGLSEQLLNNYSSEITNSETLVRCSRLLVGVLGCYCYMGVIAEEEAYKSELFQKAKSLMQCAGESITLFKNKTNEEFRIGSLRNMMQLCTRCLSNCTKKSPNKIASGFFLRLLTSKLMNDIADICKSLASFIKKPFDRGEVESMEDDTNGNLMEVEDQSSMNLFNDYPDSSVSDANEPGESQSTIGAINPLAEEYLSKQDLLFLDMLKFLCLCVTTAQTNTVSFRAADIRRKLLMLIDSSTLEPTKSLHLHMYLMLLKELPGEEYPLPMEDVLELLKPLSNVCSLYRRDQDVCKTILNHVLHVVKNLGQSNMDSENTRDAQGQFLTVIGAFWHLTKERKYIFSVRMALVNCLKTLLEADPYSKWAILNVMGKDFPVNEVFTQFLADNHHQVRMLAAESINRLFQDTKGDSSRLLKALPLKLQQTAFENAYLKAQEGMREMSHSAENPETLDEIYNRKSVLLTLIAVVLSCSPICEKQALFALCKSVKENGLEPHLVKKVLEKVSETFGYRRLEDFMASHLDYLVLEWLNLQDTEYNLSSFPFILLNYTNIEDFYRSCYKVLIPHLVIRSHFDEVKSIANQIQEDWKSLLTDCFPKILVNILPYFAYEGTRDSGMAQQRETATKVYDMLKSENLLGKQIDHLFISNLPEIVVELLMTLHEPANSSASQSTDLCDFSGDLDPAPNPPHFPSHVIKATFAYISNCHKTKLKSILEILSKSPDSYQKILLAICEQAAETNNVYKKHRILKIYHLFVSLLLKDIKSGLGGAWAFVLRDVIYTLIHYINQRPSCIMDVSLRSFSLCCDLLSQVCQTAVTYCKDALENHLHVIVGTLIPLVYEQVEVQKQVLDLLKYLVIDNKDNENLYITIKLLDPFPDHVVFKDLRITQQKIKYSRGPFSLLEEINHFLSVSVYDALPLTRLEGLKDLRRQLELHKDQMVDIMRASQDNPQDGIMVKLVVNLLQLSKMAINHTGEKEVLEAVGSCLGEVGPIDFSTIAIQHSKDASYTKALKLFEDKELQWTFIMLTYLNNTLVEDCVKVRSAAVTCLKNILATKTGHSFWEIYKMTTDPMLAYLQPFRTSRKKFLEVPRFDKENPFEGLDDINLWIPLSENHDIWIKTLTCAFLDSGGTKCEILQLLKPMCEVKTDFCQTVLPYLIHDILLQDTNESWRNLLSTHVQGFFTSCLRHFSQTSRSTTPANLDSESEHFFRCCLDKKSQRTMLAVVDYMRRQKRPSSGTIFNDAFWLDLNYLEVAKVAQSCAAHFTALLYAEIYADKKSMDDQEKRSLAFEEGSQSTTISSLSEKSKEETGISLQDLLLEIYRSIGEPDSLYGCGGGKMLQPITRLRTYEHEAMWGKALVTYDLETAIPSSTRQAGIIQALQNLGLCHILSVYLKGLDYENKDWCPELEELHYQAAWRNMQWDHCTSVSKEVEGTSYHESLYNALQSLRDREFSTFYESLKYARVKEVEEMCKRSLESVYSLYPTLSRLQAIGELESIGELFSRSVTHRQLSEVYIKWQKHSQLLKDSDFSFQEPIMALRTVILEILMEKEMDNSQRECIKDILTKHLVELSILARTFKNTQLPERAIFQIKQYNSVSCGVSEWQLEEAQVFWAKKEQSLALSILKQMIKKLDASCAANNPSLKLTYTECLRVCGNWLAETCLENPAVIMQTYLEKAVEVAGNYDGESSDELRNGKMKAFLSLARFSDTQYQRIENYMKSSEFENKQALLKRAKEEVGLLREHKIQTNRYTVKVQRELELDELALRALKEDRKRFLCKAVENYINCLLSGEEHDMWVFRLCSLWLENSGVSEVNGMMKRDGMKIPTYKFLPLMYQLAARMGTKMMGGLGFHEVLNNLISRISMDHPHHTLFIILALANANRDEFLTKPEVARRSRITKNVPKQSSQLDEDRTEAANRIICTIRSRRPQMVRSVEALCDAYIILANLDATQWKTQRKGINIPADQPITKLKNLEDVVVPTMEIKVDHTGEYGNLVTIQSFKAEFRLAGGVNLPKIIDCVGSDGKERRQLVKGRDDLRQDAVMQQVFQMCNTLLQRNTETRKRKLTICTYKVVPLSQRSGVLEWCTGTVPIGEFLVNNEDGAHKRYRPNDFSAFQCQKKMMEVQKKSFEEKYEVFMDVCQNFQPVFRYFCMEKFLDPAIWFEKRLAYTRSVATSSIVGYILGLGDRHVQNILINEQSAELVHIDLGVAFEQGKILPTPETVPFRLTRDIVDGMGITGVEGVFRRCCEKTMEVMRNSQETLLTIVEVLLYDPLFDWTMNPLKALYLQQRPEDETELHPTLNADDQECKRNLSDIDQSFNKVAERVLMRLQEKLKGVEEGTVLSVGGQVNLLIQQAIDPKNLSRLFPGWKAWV
Format: cell-based
Procedure: ATM inhibitory effects of a test compound were measured by detecting phosphorylation of Chk2 in a human non-small cell lung cancer cell line NCI-H460 (ATCC company). The level of phosphorylated Chk2 generated by an ionizing radiation was measured using AlphaScreen SureFire (TGR Biosciences).
The cells were seeded by 40000 cells per well in 96-well CellBIND® plates (Corning International Inc.), and incubated at 37° C. overnight in 5% CO2. […] 1 hour after a test compound treatment, half of the plates were irradiated with ionizing radiation 8Gy (Faxitron Bioptics, LLC, RX-650 type). The plates irradiated with ionizing radiation and the plates not being irradiated with ionizing radiation were incubated at 37° C. for 1 hour in 5% CO2. […] Subsequent operations were performed according to the instruction book of AlphaScreen SureFire. […] The inhibition ratio was calculated by the following equation. Inhibition ratio (%)=((signal of drug untreated wells in the plates irradiated with ionizing radiation−signal of drug treated wells in the plates irradiated with ionizing radiation)/(signal of drug untreated wells in the plates irradiated with ionizing radiation−signal of drug untreated wells in the plates not being irradiated with ionizing radiation))×100

IC50 [nM]	Compound
100 to 500	O=c1cc(N2CCOCC2)cc(-c2cccc3c2Sc2ccc(NC(CO)CN4CCOCC4)cc2S3)[nH]1 (stereo not drawn) [Example 1-37-2, 6-(7-((1-Hydroxy-3-morpholinopropan-2-yl)amino)thianthren-1-yl)-4-morpholino pyridin-2(1H)-one]
100 to 500	CC(Nc1ccc2c(c1)Cc1cccc(-c3cc(N4CCOCC4)cc(=O)[nH]3)c1O2)c1cccnc1 (single isomer, unassigned) [Example 2-36-2, 4-Morpholino-6-(7-((1-(pyridin-3-yl)ethyl)amino)-9H-xanthen-4-yl)pyridin-2(1H)-one]
100 to 500	Cc1cccc(C(CCO)Nc2ccc3c(c2)Sc2cccc(-c4cc(N5CCOCC5)cc(=O)[nH]4)c2S3)n1 (stereo not drawn) [Example 1-34-5, 6-(7-((3-Hydroxy-1-(6-methylpyridin-2-yl)propyl)amino)thianthren-1-yl)-4-morpholino pyridin-2(1H)-one]
100 to 500	CC(Nc1ccc2c(c1)Cc1cccc(-c3cc(N4CCOCC4)cc(=O)[nH]3)c1O2)c1nccs1 (stereo not drawn) [Example 2-14-43, 4-Morpholino-6-(7-((1-(thiazol-2-yl)ethyl)amino)-9H-xanthen-4-yl)pyridin-2 (1H)-one]
500 to 2000	Cc1ccc(C(CC2CCCCC2)Nc2ccc3c(c2)Sc2cccc(-c4cc(N5CCOCC5)cc(=O)[nH]4)c2S3)nc1 (stereo not drawn) [Example 1-12-129, 6-(7-((2-Cyclohexyl-1-(5-methylpyridin-2-yl)ethyl)amino)thianthren-1-yl)-4-morpholino pyridin-2(1H) one]
100 to 500	O=c1cc(N2CCOCC2)cc(-c2cccc3c2Oc2ccc(NC4CCN(Cc5cncc(Cl)c5)CC4)cc2C3)[nH]1 [Example 2-28-17, 6-(7-((1-((5-Chloropyridin-3-yl)methyl)piperidin-4-yl)amino)-9H-xanthen-4-yl)-4-morpholino pyridin-2(1H)-one]
100 to 500	CC(Nc1ccc2c(c1)Cc1cccc(-c3cc(N4CCOCC4)cc(=O)[nH]3)c1O2)c1cc(Cl)ccn1 (single isomer, unassigned) [Example 2-14-89-1, 6-(7-((1-(4-chloropyridin-2-yl)ethyl)amino)-9H-xanthen-4-yl)-4-morpholinopyridin-2(1H)-one]
100 to 500	CC(C)Oc1cncc(CNc2ccc3c(c2)Cc2cccc(-c4cc(N5CCOCC5)cc(=O)[nH]4)c2O3)c1 [Example 2-2-65, 6-(7-(((5-Isopropoxypyridin-3-yl)methyl)amino)-9H-xanthen-4-yl)-4-morpholino pyridin-2(1H)-one]
100 to 500	O=c1cc(N2CCOCC2)cc(-c2cccc3c2Oc2ccc(NCc4cnccn4)cc2C3)[nH]1 [Example 2-3-5, 4-Morpholino-6-(7-((pyrazin-2-ylmethyl)amino)-9H-xanthen-4-yl)pyridin-2(1H)-one]
100 to 500	COCc1ccc(CNc2ccc3c(c2)Cc2cccc(-c4cc(N5CCOCC5)cc(=O)[nH]4)c2O3)cn1 [Example 2-2-43, 6-(7-(((6-(Methoxymethyl)pyridin-3-yl)methyl)amino)-9H-xanthen-4-yl)-4-morpholino pyridin-2(1H)-one]
100 to 500	CCC(C)C(Nc1ccc2c(c1)Sc1cccc(-c3cc(N4CCOCC4)cc(=O)[nH]3)c1S2)c1ccc(C)cn1 (stereo not drawn) [Example 1-12-122, 6-(7-((2-Methyl-1-(5-methylpyridin-2-yl)butyl)amino)thianthren-1-yl)-4-morpholino pyridin-2(1H)-one]
100 to 500	O=c1cc(N2CCOCC2)cc(-c2cccc3c2Oc2ccc(NCc4cncc(-n5cccn5)c4)cc2C3)[nH]1 [Example 2-2-55, 6-(7-(((5-(1H-Pyrazol-1-yl)pyridin-3-yl)methyl)amino)-9H-xanthen-4-yl)-4-morpholino pyridin-2 (1H)-one]
< 100	O=c1cc(N2CCOCC2)cc(-c2cccc3c2Sc2ccc(NC(CN4CCOCC4)CN4CCOCC4)cc2S3)[nH]1 [Example 1-51-12, 6-(7-((1,3-Dimorpholinopropan-2-yl)amino)thianthren-1-yl)-4-morpholino pyridin-2 (1H)-one]
100 to 500	CN1CC(Nc2ccc3c(c2)Sc2cccc(-c4cc(N5CCOCC5)cc(=O)[nH]4)c2S3)C(N2CCOCC2)C1 (racemic) [Example 11-2, 6-(7-((1-Methyl-4-morpholinopyrrolidin-3-yl)amino)thianthren-1-yl)-4-morpholinopyridin-2(1H)-one]
100 to 500	O=c1cc(N2CCOCC2)cc(-c2cccc3c2Oc2ccc(NCc4ccoc4)cc2C3)[nH]1 [Example 2-14-34, 6-(7-((Furan-3-ylmethyl)amino)-9H-xanthen-4-yl)-4-morpholino pyridin-2(1H)-one]
100 to 500	CC(CN1CCN(C(C)C)CC1)Nc1ccc2c(c1)Sc1cccc(-c3cc(N4CCOCC4)cc(=O)[nH]3)c1S2 (stereo not drawn) [Example 1-13-14, 6-(7-((1-(4-Isopropylpiperazin-1-yl)propan-2-yl)amino)thianthren-1-yl)-4-morpholino pyridin-2(1H)-one]
100 to 500	CC(Nc1ccc2c(c1)Cc1cccc(-c3cc(N4CCOCC4)cc(=O)[nH]3)c1O2)C(=O)N1CCCC1 (stereo not drawn) [Example 2-15, 4-Morpholino-6-(7-((1-oxo-1-(pyrrolidin-1-yl)propan-2-yl)amino)-9H-xanthen-4-yl)pyridin-2(1H)-one]
100 to 500	O=c1cc(N2CCOCC2)cc(-c2cccc3c2Oc2ccc(NCc4cncc(-c5cccnc5)c4)cc2S3)[nH]1 [Example 4-4-10, 6-(8-(([3,3′-Bipyridin)-5-ylmethyl)amino)phenoxathiin-4-yl)-4-morpholino pyridin-2(1H)-one]
100 to 500	Cc1nccc(C(C)Nc2ccc3c(c2)Sc2cccc(-c4cc(N5CCOCC5)cc(=O)[nH]4)c2S3)n1 (stereo not drawn) [Example 1-12-80, 6-(7-((1-(2-Methylpyrimidin-4-yl)ethyl)amino)thianthren-1-yl)-4-morpholino pyridin-2(1H)-one]
100 to 500	COc1ccncc1CNc1ccc2c(c1)Sc1cccc(-c3cc(N4CCOCC4)cc(=O)[nH]3)c1S2 [Example 1-12-23, 6-(7-(((4-Methoxypyridin-3-yl)methyl)amino)thianthren-1-yl)-4-morpholino pyridin-2 (1H)-one]
500 to 2000	CC1CCCCN1CC(CO)Nc1ccc2c(c1)Sc1cccc(-c3cc(N4CCOCC4)cc(=O)[nH]3)c1S2 (single isomer, unassigned) [Example 1-37-7, 6-(7-((1-Hydroxy-3-(2-methylpiperidin-1-yl)propan-2-yl)amino)thianthren-1-yl)-4-morpholino pyridin-2(1H)-one]
500 to 2000	CC(C)(C)OC(=O)N1CCC[C@H]1CNc1ccc2c(c1)Cc1cccc(-c3cc(N4CCOCC4)cc(=O)[nH]3)c1O2 [Example 2-21-3, (S)-tert-Butyl 2-(((5-(4-morpholino-6-oxo-1,6-dihydropyridin-2-yl)-9H-xanthen-2-yl)amino)methyl) pyrrolidine-1-carboxylate]
100 to 500	O=c1cc(N2CCOCC2)cc(-c2cccc3c2Oc2ccc(NCc4cncc(OC(F)F)c4)cc2C3)[nH]1 [Example 2-14-6, 6-(7-(((5-(Difluoromethoxy)pyridin-3-yl)methyl)amino)-9H-xanthen-4-yl)-4-morpholino pyridin-2(1H)-one]
100 to 500	O=c1cc(N2CCOCC2)cc(-c2cccc3c2Oc2ccc(NC4CCC5(CC4)OCCO5)cc2C3)[nH]1 [Example 2-2-62, 6-(7-(1,4-Dioxaspiro[4.5]decan-8-ylamino)-9H-xanthen-4-yl)-4-morpholino pyridin-2(1H)-one]
500 to 2000	COCCN1CCC(Nc2ccc3c(c2)Cc2cccc(-c4cc(N5CCOCC5)cc(=O)[nH]4)c2O3)CC1 [Example 2-29, 6-(7-((1-(2-Methoxyethyl)piperidin-4-yl)amino)-9H-xanthen-4-yl)-4-morpholinopyridin-2(1H)-one]
100 to 500	COc1ccncc1CN1CCC(Nc2ccc3c(c2)Sc2cccc(-c4cc(N5CCOCC5)cc(=O)[nH]4)c2S3)CC1 [Example 1-45, 6-(7-((1-((4-Methoxypyridin-3-yl)methyl)piperidin-4-yl)amino)thianthren-1-yl)-4-morpholinopyridin-2(1H)-one]
100 to 500	CCCCN1CCC(Nc2ccc3c(c2)Cc2cccc(-c4cc(N5CCOCC5)cc(=O)[nH]4)c2O3)C1 (stereo not drawn) [Example 2-19-8, 6-(7-((1-Butylpyrrolidin-3-yl)amino)-9H-xanthen-4-yl)-4-morpholinopyridin-2(1H)-one]
500 to 2000	CC(Nc1ccc2c(c1)Cc1cccc(-c3cc(N4CCOCC4)cc(=O)[nH]3)c1O2)c1ncc(CN2CCOCC2)cn1 (stereo not drawn) [Example 2-14-67, 4-Morpholino-6-(7-((1-(5-(morpholinomethyl)pyrimidin-2-yl)ethyl)amino)-9H-xanthen-4-yl)pyridin-2 (1H)-one]
500 to 2000	CC(=O)Nc1cncc(CNc2ccc3c(c2)Cc2cccc(-c4cc(N5CCOCC5)cc(=O)[nH]4)c2O3)c1 [Example 2-2-13, N-(5-(((5-(4-Morpholino-6-oxo-1,6-dihydropyridin-2-yl)-9H-xanthen-2-yl)amino)methyl)pyridin-3-yl)acetamide]

Compound	IC50 [nM]
CC(CN1C2CCC1COC2)Nc1ccc2c(c1)Sc1cccc(-c3cc(N4CCOCC4)cc(=O)[nH]3)c1S2 (stereo not drawn) [Example 1-13-5, 6-(7-((1-(3-Oxa-8-azabicyclo [3.2.1]octan-8-yl)propan-2-yl)amino)thianthren-1-yl)-4-morpholino pyridin-2(1H)-one]	100 to 500
